pEC50: −log10 of the molar value. Where two headings read alike, the source gives them in different places.
Key:
[1] = Cytotoxicity (CC50) in Huh-7; assay type: cell-based; conditions: human, Huh-7 cells; Huh-7 cytotoxicity
Excerpt: The in vitro antiviral activity against HCV of the compounds of formula I can be tested in a cellular HCV replicon system based on Lohmann et al. (1999) Science 285:110-113, with the further modifications described by Krieger et al. (2001) Journal of Virology 75: 4614-4624 (incorporated herein by reference), which is further exemplified in the examples section. This model, while not a complete infection model for HCV, is widely accepted as the most robust and efficient model of autonomous HCV RNA replication currently available. It will be appreciated that it is important to distinguish between compounds that specifically interfere with HCV functions from those that exert cytotoxic or cytostatic effects in the HCV replicon model, and as a consequence cause a decrease in HCV RNA or linked reporter enzyme concentration. Assays are known in the field for the evaluation of cellular cytotoxicity based for example on the activity of mitochondrial enzymes using fluorogenic redox dyes such as resazurin. Furthermore, cellular counter screens exist for the evaluation of non-selective inhibition of linked reporter gene activity, such as firefly luciferase. […]

[2] = tested on: HCV type 1b replicon (Huh-7 luc/neo cells); test: Replicon assay (A), Huh-Luc luciferase read-out; assay type: cell-based, HCV genotype 1b; conditions: Hepatitis C virus, Huh-7, 72 h, read-out: EC50 (μM) (HCV)
Excerpt: The compounds of formula I were examined for activity in the inhibition of HCV-RNA replication in a cellular assay. […] The cellular assay was based on a bicistronic expression construct, as described by Lohmann et al. (1999) Science vol. 285 pp. 110-113 with modifications described by Krieger et al. (2001) Journal of Virology 75: 4614-4624, in a multi-target screening strategy.
In essence, the method was as follows. The assay utilized the stably transfected cell line Huh-7 luc/neo (hereafter referred to as Huh-Luc). This cell line harbors an RNA encoding a bicistronic expression construct comprising the wild type NS3-NS5B regions of HCV type 1b translated from an internal ribosome entry site (IRES) from encephalomyocarditis virus (EMCV), preceded by a reporter portion (FfL-luciferase), and a selectable marker portion (neo^R, neomycine phosphotransferase). […]
The replicon cells were plated in 384-well plates in the presence of the test and control compounds which were added in various concentrations. Following an incubation of three days, HCV replication was measured by assaying luciferase activity (using standard luciferase assay substrates and reagents and a Perkin Elmer ViewLux™ ultraHTS microplate imager). […] The inhibitory activity of the compound on luciferase activity was monitored on the Huh-Luc cells, enabling a dose-response curve for each test compound. […]

[3] = tested on: HCV G1a; test: In vivo efficacy assay, humanized hepatocyte mouse model; design: species or system HCV G1a-infected PXB-mice; conditions: PXB-mice
Experimental: The in vivo efficacy of compound 8a and CAS-1375074-52-4 was determined in a humanized hepatocyte mouse model (PBX-mouse) as previously described in Inoue et. al (Hepatology. 2007 April; 45(4):921-8) and Tenato et. al. (Am J Pathol 2004; 165-901-912) with the following specification: Test animals: HCV […]-infected PXB-mice, male or female, >70% replacement index of human hepatocytes. Dosing was performed p.o for 7 days at doses indicated below wherein QD represents a single dose per day, BID represents two doses per day. Efficacy of compound 8a was compared to CAS-1375074-52-4.

[4] = tested on: JFH1-HCVcc in primary human hepatocytes; assay type: cell-based, HCV (JFH1); human hepatocytes; conditions: 3 days
Experimental: Primary human hepatocytes (PHH) were prepared from patients undergoing partial hepatectomy for metastases or benign tumors. Fresh human hepatocytes were isolated from encapsulated liver fragments using a modification of the two-step collagenase digestion method. Briefly, encapsulated liver tissue was placed in a custom-made perfusion apparatus and hepatic vessels were cannulated with tubing attached multichannel manifold. The liver fragment was initially perfused for 20 min with a prewarmed (37° C.) calcium-free buffer supplemented with ethylene glycol tetraacetic acid (EGTA) followed by perfusion with a prewarmed (37° C.) buffer containing calcium (CaCl2), H2O2) and collagenase 0.05% for 10 min. Then, liver fragment was gently shaken to free liver cells in Hepatocyte Wash Medium. Cellular suspension was filtered through a gauze-lined funnel. Cells were centrifuged at low speed centrifugation. The supernatant, containing damaged or dead hepatocytes, non parenchymal cells and debris was removed and pelleted hepatocytes were re-suspended in Hepatocyte Wash Medium. Viability and cell concentration were determined by trypan blue exclusion test.
Cells were resuspended in complete hepatocyte medium consisting of William's medium (Invitrogen) supplemented with 100 IU/L insulin (Novo Nordisk, France), and 10% heat inactivated fetal calf serum (Biowest, France), and seeded at a density 1.8×10^6 viable cells onto 6 well plates that had been precoated with a type I collagen from calf skin (Sigma-Aldrich, France) The medium was replaced 16-20 hours later with fresh complete hepatocyte medium supplemented with hydrocortisone hemisuccinate (SERB, Paris, France), and cells were left in this medium until HCV inoculation. The cultures were maintained at 37° C. in a humidified 5% CO2 atmosphere.
The PHHs were inoculated 3 days after seeding. JFH1-HCVcc stocks were used to inoculate PHHs for 12 hours, at a multiplicity of infection (MOI) of 0.1 ffu per cell. After a 12-hours incubation at 37° C., the inoculum was removed, and monolayers were washed 3 times with phosphate-buffered saline and incubated in complete hepatocyte medium containing 0.1% dimethylsufoxide as carrier control, 100 IU/ml of IFNalpha as […] or else increasing concentrations of compound 8a. The cultures then were maintained during 3 days.
Total RNA was prepared from cultured cells or from filtered culture supernatants using the RNeasy or Qiamp viral RNA minikit respectively (Qiagen SA, Courtaboeuf, France) according to the manufacturer's recommendations. HCV RNA was quantified in cells and culture supernatants using a strand-specific reverse real-time PCR technique described previously (Carrière M and al 2007):
Reverse transcription was performed using primers described previously located in the […] region of HCV genome, tag-RC1 (5′-[…]-3′) and RC21 (5′-[…]-3′) for the negative and positive strands, respectively. After a denaturation step performed at 70° C. for 8 min, the RNA template was incubated at 4° C. for 5 min in the presence of 200 ng of tag-RC1 primer and 1.25 mM of each deoxynucleoside triphosphate (dNTP) (Promega, Charbonnieres, France) in a total volume of 12 μl.
Reverse transcription was carried out for 60 min at 60° C. in the presence of 20 U RNaseOut™ (Invitrogen, Cergy Pontoise, France) and 7.5 U Thermoscript™ reverse transcriptase (Invitrogen), in the buffer recommended by the manufacturer. An additional treatment was applied by adding 1 μl (2U) RNaseH (Invitrogen) for 20 min at 37° C.
The first round of nested PCR was performed with 2 μl of the cDNA obtained in a total volume of 50 μl, containing 3 U Taq polymerase (Promega), 0.5 mM dNTP, and 0.5 μM RC1 (5′-[…]-3′) and RC21 primers for positive-strand amplification, or Tag (5′-[…]-3′) and RC21 primers for negative strand amplification. […]

[5] = tested on: HCV 1b bicistronic subgenomic luciferase reporter replicon clone ET or Huh-Luc-Neo; test: Replicon assays (B), Assay 3; assay type: cell-based; conditions: Hepatitis C virus, 72 h, 3-day incubation, 8×10^3 or 2×10^4 cells, 96-well, n = 1
Experimental: The anti-HCV activity of compound 8a was tested in cell culture with replicon cells generated using reagents from the Bartenschlager laboratory (the HCV 1b bicistronic subgenomic luciferase reporter replicon clone ET or Huh-Luc-Neo). The protocol included either a 3-day incubation of 8×10^3 cells or 2×10^4 cells in a 96-well format in an eight-point 1:5 dilution series of the compound. Dose response curves were generated based on the luciferase read-out.

[6] = tested on: HCV 1b bicistronic subgenomic luciferase reporter replicon clone ET; test: Replicon assays (B), Assay 1; assay type: cell-based; conditions: Hepatitis C virus, 72 h; 3-day incubation, 2500 cells 384-well luciferase (variation: 3000 cells 96-well qRT-PCR); n = 8
Experimental: The anti-HCV activity of compound 8a was tested in cell culture with replicon cells generated using reagents from the Bartenschlager laboratory (the HCV 1b bicistronic subgenomic luciferase reporter replicon clone ET). The protocol included a 3-day incubation of 2500 replicon cells in a 384-well format in a nine-point 1:4 dilution series of the compound. Dose response curves were generated based on the firefly luciferase read-out. In a variation of this assay, a 3 day incubation of 3000 cells in a 96-well format in a nine-point dilution series was followed by qRT-PCR Taqman detection of HCV genome, and normalized to the cellular transcript, RPL13 (of the ribosomal subunit RPL13 gene) as a control for compound inhibition of cellular transcription.

[7] = tested on: HCV 1b bicistronic subgenomic luciferase reporter replicon clone ET or Huh-Luc-Neo; test: Replicon assays (B), Assay 2; assay type: cell-based; conditions: Hepatitis C virus, 72 h, 3-day incubation, 2×10^4 cells, 96-well, n = 4, read-out: Average EC50 value (8a), Assay 2
Experimental: The anti-HCV activity of compound 8a was tested in cell culture with replicon cells generated using reagents from the Bartenschlager laboratory (the HCV 1b bicistronic subgenomic luciferase reporter replicon clone ET or Huh-Luc-Neo). The protocol included a 3-day incubation of 2×10^4 replicon cells in a 96-well format in a six-point 1:5 dilution series of the compound. Dose response curves were generated based on the luciferase read-out.

CC(C)O[P@@]1(=O)OC[C@H]2O[C@@H](n3ccc(=O)[nH]c3=O)[C@@]3(CCO3)[C@@H]2O1 [Compound 8a]
CC50 [1]: > 100 µM
EC50 [2]: 0.13 µM
log drop HCV viral RNA after dosing for 7 days ([3]; 50 mg/kg BID p.o.): clear log drop
log drop HCV viral RNA after dosing for 7 days ([3]; 100 mg/kg BID p.o.): most pronounced log drop effect in viral RNA
log drop HCV viral RNA after dosing for 7 days ([3]; 100 mg/kg QD p.o.): clear log drop
log drop HCV viral RNA after dosing for 7 days ([3]; 200 mg/kg QD p.o.): clear log drop
positive strand HCV-RNA levels in primary human hepatocytes ([4]; Exp. 1, 0.195 μM, HCV control 3.56): 2.18 10^6 HCV RNA copies/μg of total RNA
positive strand HCV-RNA levels in primary human hepatocytes ([4]; Exp. 1, 0.78 μm, HCV control 3.56): 2.25 10^6 HCV RNA copies/μg of total RNA
positive strand HCV-RNA levels in primary human hepatocytes ([4]; Exp. 1, 3.12 μm, HCV control 3.56): 1.09 10^6 HCV RNA copies/μg of total RNA
positive strand HCV-RNA levels in primary human hepatocytes ([4]; Exp. 1, 12.5 μm, HCV control 3.56): 2.17 10^6 HCV RNA copies/μg of total RNA
positive strand HCV-RNA levels in primary human hepatocytes ([4]; Exp. 1, 50 μm, HCV control 3.56): 0.94 10^6 HCV RNA copies/μg of total RNA
positive strand HCV-RNA levels in primary human hepatocytes ([4]; Exp. 2, 0.195 μM, HCV control 5.53): 1.12 10^6 HCV RNA copies/μg of total RNA
positive strand HCV-RNA levels in primary human hepatocytes ([4]; Exp. 2, 0.78 μm, HCV control 5.53): 1.3 10^6 HCV RNA copies/μg of total RNA
positive strand HCV-RNA levels in primary human hepatocytes ([4]; Exp. 2, 3.12 μm, HCV control 5.53): 0.94 10^6 HCV RNA copies/μg of total RNA
positive strand HCV-RNA levels in primary human hepatocytes ([4]; Exp. 2, 12.5 μm, HCV control 5.53): 1.3 10^6 HCV RNA copies/μg of total RNA
positive strand HCV-RNA levels in primary human hepatocytes ([4]; Exp. 2, 50 μm, HCV control 5.53): 1.33 10^6 HCV RNA copies/μg of total RNA
pEC50 [5]: < 4.00
pEC50 [6]: 4.24
pEC50 [7]: 4.76

IFNα
positive strand HCV-RNA levels in primary human hepatocytes ([4]; Exp. 1, 100 IU/mL, HCV control 3.56): 1.48 10^6 HCV RNA copies/μg of total RNA
positive strand HCV-RNA levels in primary human hepatocytes ([4]; Exp. 2, 100 IU/mL, HCV control 5.53): 1.59 10^6 HCV RNA copies/μg of total RNA

— patent US20190092804A1, “URACYL SPIROOXETANE NUCLEOSIDES” (Janssen Sciences Ireland Unlimited Company, priority 2012, published 2019)
